This is an account of results in paper PMC11521309, “A novel 4-aminoquinoline chemotype with multistage antimalarial activity and lack of cross-resistance with PfCRT and PfMDR1 mutants” (PLOS Pathogens, 2024).

Structures are written as SMILES. Values joined by “and” are separate entries in the source; they are usually repeats but may differ in a detail not shown here. Identical values can stand only once. Like-named read-outs stand apart in the source and are kept apart here. Bounds are passed on as bounds.

In series [1] the test system is Hz formation in ABS P. falciparum 3D7 parasites. Briefly: Cellular heme fractionation assay. It is filed as cell-based, Plasmodium falciparum. The following applies: for %Hb / %Heme / %Hemozoin / Hb Fe (fg/troph) / Heme Fe (fg/troph) / Hemozoin Fe (fg/troph) / Total Fe (fg/troph): rep 1-4 and Mean. The method, then: A heme fractionation assay was used to measure the inhibition of Hz formation in cultured ABS P. falciparum 3D7 parasites as previously described. […] Late trophozoites were harvested after 32 hours of incubation by lysing RBCs with 0.05% saponin followed by multiple washes with 1 × PBS (pH 7.5) to remove any residual traces of hemoglobin. The parasite pellet was resuspended in PBS and the total number of trophozoites isolated was quantified using flow cytometry. Contents of the trophozoite pellet were released by hypotonic lysis and sonication. After centrifugation, treatments with HEPES buffer (pH 7.4), sodium dodecyl sulfate, pyridine, and NaOH, allowed us to separate the fractions corresponding to the different heme species of interest. A microplate reader was employed to measure the UV-visible spectrum of each heme fraction as a Fe(III)heme-pyridine complex. Fractions of undigested hemoglobin, “free” heme, and Hz were quantified using a heme standard curve based on the mass of each heme-Fe species per mature trophozoite (fg/cell), obtained by dividing the total amount of each heme species by the corresponding number of parasites in that fraction as determined by flow cytometry. Statistical comparisons and analyses for trends employed Students’ t-tests (GraphPad Prism version 9).

Series [2] has as its system P. falciparum Dd2 ABS parasites. Put plainly: ABS parasite survival assay, 72 h, flow cytometry. It is filed as cell-based. The following applies: Plasmodium falciparum, DD2, ABS parasites, N = 3; read-out: IC50 Dd2. On the procedure:
(§1) P. falciparum ABS parasites were cultured at 3% hematocrit in human O^+ RBCs in RPMI-1640 media supplemented with 25 mM HEPES, 50 mg/L hypoxanthine, 2 mM L-glutamine, 0.21% sodium bicarbonate, 0.5% (w/v) AlbuMAXII (Invitrogen) and 10 μg/mL gentamycin. Culture flasks were kept in modular incubator chambers (Billups-Rothenberg) in a 5% O2, 5% CO2, and 90% N2 atmosphere at 37°C. Synchronized ring-stage parasites were obtained by two consecutive rounds of treatment with 5% D-sorbitol in 48-hour intervals. […] This was done by exposing cultures at 1% hematocrit and 0.3% parasitemia in 96-well plates in the presence of drugs in a two-fold 10 or 12-point serial dilution in duplicate along with drug-free controls. After a 72-hour incubation, parasite survival was assessed by flow cytometry on an iQue flow cytometer (Sartorius) using SYBR Green and MitoTracker Deep Red FM (Life Technologies) as nuclear stain and vital dye, respectively. Parasite survival was determined as a percentage relative to drug-free control. IC50 values were interpolated from log concentration versus response curves in Prism 9 (GraphPad Prism Software Inc.).

Series [3] has as its system P. falciparum 3D7 ABS parasites. Briefly: ABS parasite survival assay, 72 h, flow cytometry. Format: cell-based. The following applies: Plasmodium falciparum, 3D7, ABS parasites, N = 3; read-out: IC50 3D7. The method, then:
as §1

Another series has as its system HepG2 cells. Put plainly: MTT cytotoxicity assay, 72 h. Format: cell-based, Human. The method, then:
(§2) Human hepatoma (HepG2) and fibroblast-like monkey kidney cells (COS-7) were cultured in Dulbecco’s Modified Eagle Medium supplemented with 10% heat-inactivated fetal bovine serum and gentamycin (40 mg/L) at 37°C in a 5% CO2 atmosphere. Cytotoxicity of test compounds was measured by metabolic reduction of mitochondrial enzymes using the MTT assay (3-[4,5-dimethyl-thiazol-2-yl]-2,5-diphenyltetrazolium chloride). Cells were seeded at 10^5 cells/well in 96-well plates and incubated for 72 hours in the presence of a 2-fold 12-point serial dilution of drugs along with drug-free controls. After adding 15 μL of MTT (5 mg/mL) to the wells, plates were centrifuged at 317g for 5 minutes and the pellet was resuspended in isopropanol. Absorbance was measured at 570 nm (CLARIOStar, Labtech BMG). Cell viability was determined by formazan production, and was expressed as a percentage of untreated control wells.

A short description of series [4]: MTT cytotoxicity assay, 72 h. Conditions: human, MTT, 72 h, N = 3. It is filed as cell-based, Human. On the procedure: as §2
A short description of series [5]: MTT cytotoxicity assay, 72 h. Format: cell-based, monkey. The following applies: monkey, MTT, 72 h, N = 3. The method, then:
as §2

Another series has as its system COS-7 cells. Briefly: MTT cytotoxicity assay, 72 h. It is filed as cell-based, monkey. On the procedure: as §2
Where [6] appears, read: 0.5–3.0 × IC50 vs untreated control.

With `C[C@H]1Cc2c([nH]c3cc(Cl)c(F)cc23)[C@@]2(N1)C(=O)Nc1ccc(Cl)cc12` [KAE609, cipargamin], in series [1] (0.5x), the “%Hb” value is 3.6542% and 7.0007% and 6.1505% and 3.0130%; the “%Heme” value was 5.3042% and 5.9396% and 6.0562% and 6.0905%; the “%Hemozoin” value was 91.0416% and 87.0597% and 87.7934% and 90.8965%; the “Hb Fe (fg/troph)” value was 2.0363 fg/troph and 3.5589 fg/troph and 3.2475 fg/troph and 1.8499 fg/troph. For the same molecule, in series [1] (0.5x), the “Heme Fe (fg/troph)” value was 2.9557 fg/troph and 3.0195 fg/troph and 3.1977 fg/troph and 3.7394 fg/troph; the “Hemozoin Fe (fg/troph)” value is 50.7323 fg/troph and 44.2576 fg/troph and 46.3552 fg/troph and 55.8088 fg/troph; the “Total Fe (fg/troph)” value was 55.72 fg/troph and 50.84 fg/troph and 52.80 fg/troph and 61.40 fg/troph. Further, in series [1] (setting [6]), the “effect on Hz levels” value is “did not affect Hz formation”; the “effect on undigested Hb” value was “subtle yet significant increment in Hb levels observed under 2 and 2.5 × IC50”. For the same molecule, in series [1] (1x), the “%Hb” value is 5.1693% and 5.1920% and 5.0902% and 5.1212%; the “%Heme” value was 5.7735% and 5.8398% and 5.6460% and 5.8813%; the “%Hemozoin” value was 89.0573% and 88.9682% and 89.2638% and 88.9975%; the “Hb Fe (fg/troph)” value was 2.9437 fg/troph and 3.1428 fg/troph and 2.7576 fg/troph and 3.0371 fg/troph. In series [1] (1x), the “Heme Fe (fg/troph)” value is 3.2877 fg/troph and 3.5349 fg/troph and 3.0588 fg/troph and 3.4878 fg/troph; the “Hemozoin Fe (fg/troph)” value was 50.7140 fg/troph and 53.8534 fg/troph and 48.3591 fg/troph and 52.7792 fg/troph. Further, in series [1] (2x), the “%Hb” value is 6.5332% and 6.7594% and 6.3629% and 6.9166%; the “%Heme” value was 5.4724% and 5.9940% and 4.2854% and 5.7076%; the “%Hemozoin” value was 87.9944% and 87.2465% and 89.3517% and 87.3758%; the “Hb Fe (fg/troph)” value is 4.0073 fg/troph and 4.4606 fg/troph and 3.7570 fg/troph and 4.7143 fg/troph. Also, in series [1] (2x), the “Heme Fe (fg/troph)” value was 3.3567 fg/troph and 3.9555 fg/troph and 2.5303 fg/troph and 3.8902 fg/troph; the “Hemozoin Fe (fg/troph)” value was 53.9742 fg/troph and 57.5747 fg/troph and 52.7581 fg/troph and 59.5545 fg/troph; the “Total Fe (fg/troph)” value was 61.34 fg/troph and 65.99 fg/troph and 59.05 fg/troph and 68.16 fg/troph. For the same molecule, in series [1] (2.5x), the “%Hb” value is 5.1788% and 7.1992% and 6.5284% and 7.3663%; the “%Heme” value was 6.6682% and 5.2565% and 5.5507% and 5.3264%; the “%Hemozoin” value is 88.1530% and 87.5443% and 87.9209% and 87.3073%; the “Hb Fe (fg/troph)” value is 2.9541 fg/troph and 4.0082 fg/troph and 4.1259 fg/troph and 4.4913 fg/troph. Moreover, in series [1] (2.5x), the “Heme Fe (fg/troph)” value was 3.8037 fg/troph and 2.9266 fg/troph and 3.5080 fg/troph and 3.2476 fg/troph; the “Hemozoin Fe (fg/troph)” value was 50.2849 fg/troph and 48.7406 fg/troph and 55.5658 fg/troph and 53.2328 fg/troph; the “Total Fe (fg/troph)” value was 57.04 fg/troph and 55.68 fg/troph and 63.20 fg/troph and 60.97 fg/troph. Also, in series [1] (3x), the “%Hb” value was 3.4597% and 3.9960% and 5.9128% and 5.9841%; the “%Heme” value is 6.5997% and 5.1160% and 5.1737% and 5.1489%; the “%Hemozoin” value was 89.9406% and 90.8880% and 88.9135% and 88.8671%; the “Heme Fe (fg/troph)” value is 3.6368 fg/troph and 3.2102 fg/troph and 3.3952 fg/troph and 3.4079 fg/troph. In addition, in series [1] (3x), the “Hemozoin Fe (fg/troph)” value was 49.5627 fg/troph and 57.0293 fg/troph and 58.3496 fg/troph and 58.8192 fg/troph.

`COc1cccc(Nc2ccnc3ccccc23)c1` [LDT-617]: the figures for the IC50 in series [2] and in series [3] were 1.9 ± 0.2 µM and 1.8 ± 0.1 µM, respectively. In the series with HepG2 cells, the “SI (CC50 HepG2 / IC50 3D7)” value is on record as 23.1. The CC50 at 72 h turned out to be 40.8 ± 12.2 µM in series [4] (HepG2 cells) and 51.2 ± 6.6 µM in series [5] (COS-7 cells). In the series with COS-7 cells, the “SI (CC50 COS-7 / IC50 3D7)” value is 28.9.

Turning to `COc1ccc(Nc2ccnc3ccccc23)cc1OC` [LDT-618], the IC50 in series [2] amounted to 1.9 ± 0.2 µM; in series [3] it was 1.8 ± 0.1 µM. In addition, the “SI (CC50 HepG2 / IC50 3D7)” value in the series with HepG2 cells is on record as 16.8. For the same molecule, the CC50 at 72 h in series [4] (HepG2 cells) was 29.8 ± 9.7 µM; in series [5] (COS-7 cells), greater than 100 µM. In the series on COS-7 cells, the “SI (CC50 COS-7 / IC50 3D7)” value is recorded as greater than 56.5.

For `COc1cc(Nc2ccnc3ccc(Br)cc23)cc(OC)c1OC` [LDT-619], the half-inhibitory concentration (IC50) in series [2] and in series [3] was greater than 5 µM in each case. Further, the “SI (CC50 HepG2 / IC50 3D7)” value with HepG2 cells was found to be 0.1. For the same molecule, the CC50 at 72 h stood at 0.3 ± 0.04 µM in series [4] (read-out: CC50 HepG2) and 3.3 ± 0.3 µM in series [5] (read-out: CC50 COS-7). For the same molecule, the “SI (CC50 COS-7 / IC50 3D7)” value in the series on COS-7 cells amounted to 0.7.

In the case of `CCOc1cc2nccc(Nc3cc(OC)c(OC)c(OC)c3)c2cc1OCC` [LDT-620], the IC50 in series [2] was found to be 0.5 ± 0.1 µM; in series [3] it was 0.4 ± 0.05 µM. Also, in the series on HepG2 cells, the “SI (CC50 HepG2 / IC50 3D7)” value is 3.8. The cytotoxic concentration (CC50) at 72 h was determined as 1.6 ± 0.1 µM in series [4] (HepG2 cells) and 2.6 ± 0.3 µM in series [5] (COS-7 cells). The “SI (CC50 COS-7 / IC50 3D7)” value in the series with COS-7 cells stood at 6.3.
